Data taken from patent US20240209028A1, “CNP COMPOUNDS” (priority 2022, published 2024).
Starred links: 1 amine or outer side, 2 acyl side, 3 side chain; linkers in the order of their positions; H or OH if unused. Positions of bridges follow the written chain, without caps; N, C: chain ends. Residues, ends and D or L forms follow the SMILES beside them. *: point of attachment. C18 diacid = O=C(O)CCCCCCCCCCCCCCCCC(=O)*; γGlu = O=C(O)[C@H](CCC(=O)[*:2])N[*:1]; AEEA = NCCOCCOCC(=O)O

The compounds below were run against T1, human natriuretic peptide receptor 2 (hNPR2) (Homo sapiens, UniProt P20594) (assay: In vitro hNPR2 activity assay (cGMP GloSensor reporter, HEK293)). Details: 0% HSA; HEK293-hNPR2/GloSensor cells.
T1 construct: expressed in transfected cells; host or cells: HEK293 (ATCC CRL-1573), clone 35, co-transfected with pGloSensor-42F
T1 sequence (P20594 23-1047): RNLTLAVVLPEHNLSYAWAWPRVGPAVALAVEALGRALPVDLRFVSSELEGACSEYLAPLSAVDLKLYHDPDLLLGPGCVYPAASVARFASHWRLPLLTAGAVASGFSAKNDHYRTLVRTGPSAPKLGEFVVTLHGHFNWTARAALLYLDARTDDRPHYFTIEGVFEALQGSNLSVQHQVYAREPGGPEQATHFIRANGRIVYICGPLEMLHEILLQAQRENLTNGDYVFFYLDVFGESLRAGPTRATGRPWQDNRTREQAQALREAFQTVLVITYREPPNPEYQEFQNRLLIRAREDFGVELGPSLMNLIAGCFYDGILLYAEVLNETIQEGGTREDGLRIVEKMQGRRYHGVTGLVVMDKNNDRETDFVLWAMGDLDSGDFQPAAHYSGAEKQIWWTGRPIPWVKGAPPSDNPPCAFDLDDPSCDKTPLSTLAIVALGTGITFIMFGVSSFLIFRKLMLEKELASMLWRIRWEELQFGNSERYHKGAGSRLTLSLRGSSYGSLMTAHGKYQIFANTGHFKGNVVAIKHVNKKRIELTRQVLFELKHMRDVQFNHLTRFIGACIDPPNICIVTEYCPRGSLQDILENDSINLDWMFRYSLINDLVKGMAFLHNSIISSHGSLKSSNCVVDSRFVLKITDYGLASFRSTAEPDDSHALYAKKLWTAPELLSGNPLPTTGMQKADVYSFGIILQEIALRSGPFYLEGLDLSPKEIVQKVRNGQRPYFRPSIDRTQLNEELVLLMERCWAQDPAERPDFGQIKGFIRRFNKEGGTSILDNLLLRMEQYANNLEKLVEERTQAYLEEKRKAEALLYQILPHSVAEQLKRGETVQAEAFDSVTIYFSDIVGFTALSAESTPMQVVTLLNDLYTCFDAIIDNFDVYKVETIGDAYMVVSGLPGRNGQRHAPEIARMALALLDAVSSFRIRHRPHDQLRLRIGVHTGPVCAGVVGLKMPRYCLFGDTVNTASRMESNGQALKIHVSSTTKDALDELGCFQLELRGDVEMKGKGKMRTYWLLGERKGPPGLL
Assay type: cell-based
Method in brief: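 Potency is the EC50 from a four-parameter logistic fit, also expressed relative to the in-plate CNP22 control (×100), with at least two replicates. Compounds (ten concentrations, […], HSA-free diluent with 1% OVA, 0.01% Tween20) were incubated 30 min at 37 °C on HEK293 cells co-expressing hNPR2 and a GloSensor cGMP luciferase. Luminescence detected with Bright-Glo.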
With CC[C@H](C)[C@@H]1NC(=O)[C@H](CCCNC(=N)N)NC(=O)[C@H](CCC(=O)O)NC(=O)[C@H](CC(C)C)NC(=O)[C@@H]2CCCN2C(=O)[C@H](CC(C)C)NC(=O)CNC(=O)[C@H](Cc2ccccc2)NC(=O)[C@@H](NC(=O)CNC(=O)[C@H](CCC(N)=O)NC(=O)[C@H](CO)NC(=O)[C@H](CC(C)C)NC(=O)CNC(=O)[C@H](CCCCN)NC(=O)[C@H](CCCCN)NC(=O)[C@H](CCC(N)=O)NC(=O)[C@H](C)NC(=O)CNC(=O)[C@H](CCCCN)NC(=O)[C@H](Cc2ccc(O)cc2)NC(=O)[C@H](CCCCN)NC(=O)[C@H](CCCNC(=N)N)NC(=O)[C@H](C)NC(=O)COCCOCCNC(=O)COCCOCCNC(=O)COCCOCCNC(=O)COCCOCCNC(=O)CC[C@H](NC(=O)CC[C@H](NC(=O)CC[C@H](NC(=O)CC[C@H](NC(=O)CC[C@H](NC(=O)CCCCCCCCCCCCCCCCC(=O)O)C(=O)O)C(=O)O)C(=O)O)C(=O)O)C(=O)O)CSSC[C@@H](C(=O)O)NC(=O)CNC(=O)[C@H](CC(C)C)NC(=O)CNC(=O)[C@H](CO)NC(=O)[C@H](CC(C)C)NC(=O)[C@H](CO)NC(=O)CNC1=O [compound 1477] ({C18 diacid-γGlu-γGlu-γGlu-γGlu-γGlu-AEEA-AEEA-AEEA-AEEA}-ARKYKGAQKKGLSQGCFGLPLERIGSLSGLGC-OH; disulfide 16-32) the EC50 was 0.13 nM.

Same assay, conditions: potency relative to CNP22 (0065)
CC[C@H](C)[C@@H]1NC(=O)[C@H](CCCNC(=N)N)NC(=O)[C@H](CC(=O)O)NC(=O)[C@H](CC(C)C)NC(=O)[C@@H]2CCCN2C(=O)[C@H](CC(C)C)NC(=O)CNC(=O)[C@H](Cc2ccccc2)NC(=O)[C@@H](NC(=O)CNC(=O)[C@H](CCC(N)=O)NC(=O)[C@H](CO)NC(=O)[C@H](CC(C)C)NC(=O)CNC(=O)[C@H](CCCCN)NC(=O)[C@H](CCCCN)NC(=O)[C@H](CCC(N)=O)NC(=O)[C@H](C)NC(=O)CNC(=O)[C@@H]2CCCN2C(=O)[C@H](C)NC(=O)[C@H](CCC(N)=O)NC(=O)CNC(=O)COCCOCCNC(=O)COCCOCCNC(=O)CC[C@H](NC(=O)CCCCCCCCCCCCCCCCC(=O)O)C(=O)O)CSSC[C@@H](C(=O)O)NC(=O)CNC(=O)[C@H](CC(C)C)NC(=O)CNC(=O)[C@H](CO)NC(=O)[C@H](CC(C)C)NC(=O)[C@H](CO)NC(=O)CNC1=O [compound 1484] ({C18 diacid-γGlu-AEEA-AEEA}-GQAPGAQKKGLSQGCFGLPLDRIGSLSGLGC-OH; disulfide 15-31; C-terminus assumed) was tested, and the “hNPR2 0% HSA. [EC50% rel CNP]” value was 27.9%.
With CC[C@H](C)[C@@H]1NC(=O)[C@H](CCCNC(=N)N)NC(=O)[C@H](CC(=O)O)NC(=O)[C@H](CC(C)C)NC(=O)[C@@H]2CCCN2C(=O)[C@H](CC(C)C)NC(=O)CNC(=O)[C@H](Cc2ccccc2)NC(=O)[C@@H](NC(=O)CNC(=O)[C@H](CO)NC(=O)[C@H](CO)NC(=O)[C@@H](NC(=O)CNC(=O)[C@@H](NC(=O)[C@H](CCCCN)NC(=O)[C@H](CCC(N)=O)NC(=O)[C@H](C)NC(=O)CNC(=O)[C@H](Cc2c[nH]cn2)NC(=O)[C@H](Cc2ccc(O)cc2)NC(=O)[C@H](CCCCN)NC(=O)[C@H](CCCNC(=N)N)NC(=O)[C@H](C)NC(=O)COCCOCCNC(=O)COCCOCCNC(=O)CC[C@H](NC(=O)CC[C@H](NC(=O)CCCCCCCCCCCCCCCCC(=O)O)C(=O)O)C(=O)O)[C@@H](C)O)C(C)C)CSSC[C@@H](C(=O)O)NC(=O)CNC(=O)[C@H](CC(C)C)NC(=O)CNC(=O)[C@H](CO)NC(=O)[C@H](CC(C)C)NC(=O)[C@H](CO)NC(=O)CNC1=O [compound 1354] ({C18 diacid-γGlu-γGlu-AEEA-AEEA}-ARKYHGAQKTGVSSGCFGLPLDRIGSLSGLGC-OH; disulfide 16-32) the “hNPR2 0% HSA. [EC50% rel CNP]” value was 27.5%.
With CC[C@H](C)[C@@H]1NC(=O)[C@H](CCCNC(=N)N)NC(=O)[C@H](CC(=O)O)NC(=O)[C@H](CC(C)C)NC(=O)[C@@H]2CCCN2C(=O)[C@H](CC(C)C)NC(=O)CNC(=O)[C@H](Cc2ccccc2)NC(=O)[C@@H](NC(=O)CNC(=O)[C@H](CCC(N)=O)NC(=O)[C@H](CO)NC(=O)[C@H](CC(C)C)NC(=O)CNC(=O)[C@H](CCCCN)NC(=O)[C@H](CCCCN)NC(=O)[C@H](CCC(N)=O)NC(=O)[C@H](C)NC(=O)CNC(=O)[C@H](CCCCN)NC(=O)[C@H](Cc2ccc(O)cc2)NC(=O)[C@H](CCCCN)NC(=O)[C@H](CCCNC(=N)N)NC(=O)[C@H](C)NC(=O)[C@H](CCC(N)=O)NC(=O)[C@@H]2CCCN2C(=O)[C@H](Cc2c[nH]cn2)NC(=O)[C@H](CCC(=O)O)NC(=O)[C@H](CCC(N)=O)NC(=O)COCCOCCNC(=O)COCCOCCNC(=O)COCCOCCNC(=O)COCCOCCNC(=O)CC[C@H](NC(=O)CC[C@H](NC(=O)CC[C@H](NC(=O)CC[C@H](NC(=O)CC[C@H](NC(=O)CCCCCCCCCCCCCCCCC(=O)O)C(=O)O)C(=O)O)C(=O)O)C(=O)O)C(=O)O)CSSC[C@@H](C(=O)O)NC(=O)CNC(=O)[C@H](CC(C)C)NC(=O)CNC(=O)[C@H](CO)NC(=O)[C@H](CC(C)C)NC(=O)[C@H](CO)NC(=O)CNC1=O [compound 1406] ({C18 diacid-γGlu-γGlu-γGlu-γGlu-γGlu-AEEA-AEEA-AEEA-AEEA}-QEHPQARKYKGAQKKGLSQGCFGLPLDRIGSLSGLGC-OH; disulfide 21-37) the “hNPR2 0% HSA. [EC50% rel CNP]” value was 59.1%.
CC[C@H](C)[C@@H]1NC(=O)[C@H](CCCNC(=N)N)NC(=O)[C@H](CC(=O)O)NC(=O)[C@H](CC(C)C)NC(=O)[C@@H]2CCCN2C(=O)[C@H](CC(C)C)NC(=O)CNC(=O)[C@H](Cc2ccccc2)NC(=O)[C@@H](NC(=O)CNC(=O)[C@H](CO)NC(=O)[C@H](CO)NC(=O)[C@H](CC(C)C)NC(=O)CNC(=O)[C@@H](NC(=O)[C@H](Cc2c[nH]cn2)NC(=O)[C@H](CCC(N)=O)NC(=O)[C@H](C)NC(=O)CNC(=O)[C@H](Cc2c[nH]cn2)NC(=O)[C@H](Cc2ccc(O)cc2)NC(=O)COCCOCCNC(=O)COCCOCCNC(=O)CC[C@H](NC(=O)CCCCCCCCCCCCCCCCC(=O)O)C(=O)O)[C@@H](C)O)CSSC[C@@H](C(=O)O)NC(=O)CNC(=O)[C@H](CC(C)C)NC(=O)CNC(=O)[C@H](CO)NC(=O)[C@H](CC(C)C)NC(=O)[C@H](CO)NC(=O)CNC1=O [compound 1304] ({C18 diacid-γGlu-AEEA-AEEA}-YHGAQHTGLSSGCFGLPLDRIGSLSGLGC-OH; disulfide 13-29) was tested, and the “hNPR2 0% HSA. [EC50% rel CNP]” value was 20.7%.
In the case of CC[C@H](C)[C@@H]1NC(=O)[C@H](CCCNC(=N)N)NC(=O)[C@H](CCC(=O)O)NC(=O)[C@H](CC(C)C)NC(=O)[C@@H]2CCCN2C(=O)[C@H](CC(C)C)NC(=O)CNC(=O)[C@H](Cc2ccccc2)NC(=O)[C@@H](NC(=O)CNC(=O)[C@H](CCC(N)=O)NC(=O)[C@H](CO)NC(=O)[C@H](CC(C)C)NC(=O)CNC(=O)[C@H](CCCCN)NC(=O)[C@H](CCCCN)NC(=O)[C@H](CCC(N)=O)NC(=O)[C@H](C)NC(=O)CNC(=O)[C@H](CCCCN)NC(=O)[C@H](Cc2ccc(O)cc2)NC(=O)[C@H](CCCCN)NC(=O)[C@H](CCCNC(=N)N)NC(=O)[C@H](C)NC(=O)COCCOCCNC(=O)COCCOCCNC(=O)COCCOCCNC(=O)COCCOCCNC(=O)CC[C@H](NC(=O)CC[C@H](NC(=O)CC[C@H](NC(=O)CC[C@H](NC(=O)CC[C@H](NC(=O)CCCCCCCCCCCCCCCCC(=O)O)C(=O)O)C(=O)O)C(=O)O)C(=O)O)C(=O)O)CSSC[C@@H](C(=O)O)NC(=O)CNC(=O)[C@H](CC(C)C)NC(=O)CNC(=O)[C@H](CO)NC(=O)[C@H](CC(C)C)NC(=O)[C@H](CO)NC(=O)CNC1=O [compound 1477] ({C18 diacid-γGlu-γGlu-γGlu-γGlu-γGlu-AEEA-AEEA-AEEA-AEEA}-ARKYKGAQKKGLSQGCFGLPLERIGSLSGLGC-OH; disulfide 16-32), the “hNPR2 0% HSA. [EC50% rel CNP]” value is reported as 10.3%.
In the case of CC[C@H](C)[C@@H]1NC(=O)[C@H](CCCNC(=N)N)NC(=O)[C@H](CC(=O)O)NC(=O)[C@H](CC(C)C)NC(=O)[C@@H]2CCCN2C(=O)[C@H](CC(C)C)NC(=O)CNC(=O)[C@H](Cc2ccccc2)NC(=O)[C@@H](NC(=O)CNC(=O)[C@H](CO)NC(=O)[C@H](CO)NC(=O)[C@H](CC(C)C)NC(=O)CNC(=O)[C@H](CCCCN)NC(=O)[C@H](CCCCN)NC(=O)[C@H](CCC(N)=O)NC(=O)[C@H](C)NC(=O)CNC(=O)[C@H](CCCCN)NC(=O)[C@H](Cc2ccc(O)cc2)NC(=O)[C@H](CCCCN)NC(=O)[C@H](CCCNC(=N)N)NC(=O)[C@H](C)NC(=O)CC[C@H](NC(=O)CC[C@H](NC(=O)CC[C@H](NC(=O)CC[C@H](NC(=O)CCCCCCCCCCCCCCCCC(=O)O)C(=O)O)C(=O)O)C(=O)O)C(=O)O)CSSC[C@@H](C(=O)O)NC(=O)CNC(=O)[C@H](CC(C)C)NC(=O)CNC(=O)[C@H](CO)NC(=O)[C@H](CC(C)C)NC(=O)[C@H](CO)NC(=O)CNC1=O [compound 1386] ({C18 diacid-γGlu-γGlu-γGlu-γGlu}-ARKYKGAQKKGLSSGCFGLPLDRIGSLSGLGC-OH; disulfide 16-32), the “hNPR2 0% HSA. [EC50% rel CNP]” value is reported as 36.9%.
